The subject of series [1] is E. coli RecO. Description: ITC of SSB tetramers (apo) binding to RecO. Set-up: species or system Escherichia coli. The settings on record: absence of ssDNA, BTP pH 7.0, 200 mM NaCl, 15°C and 25°C. The protocol: (§1) The concentrations were determined thereafter.
The next series relates to χ. Briefly: ITC of SSB-A binding to χ. Set-up: species or system Escherichia coli. The settings on record: Buffer T pH 8.1, 200 mM NaCl, 25°C. The procedure: (§2) The concentrations were determined thereafter. […]
(§3) Figure S7. Results from various control ITC titrations of (a) SSB-A and RecO at 15°C and (b) 25°C, (c) SSB-A and c, (d) P65 and (dT)70, (e) (dT)70 and SSB-A, and (f) (dT)70 and wtSSB. (a) SSB-A (10 µM), a homo-tetrameric SSB variant containing an additional six amino acids, TGASGT, at the C-terminus of each subunit, was titrated into […]
(§4) (5.9 µM) was titrated into c (1 µM) in buffer T (10 mM Tris-HCl, pH 8.1, 200 mM NaCl, […]
(§5) 0.1 mM EDTA) at 25° C. […] (d) dT70 (60 µM) was […]
(§6) titrated into P65 (2 µM) in buffer BTP (pH 7.0, 20 mM NaCl) at 25° C. P65, the full-length […]
(§7) (dT)70. (e) (dT)70 (15 µM) was titrated into SSB-A (1 µM) in buffer T at 25° C. SSB-A (also on this page, place not known: 15°C 25°C. 25°C. 25°C. 25°C. 2.00 kcal mol-1 of injectant kcal mol-1 of injectant [SSB-A]tot/[RecO]tot kcal mol-1 of injectant [SSB-A]tot/[c]tot (f)(d))

Series [2] has as its system (dT)70. Briefly: ITC of SSB tetramers with (dT)70. It counts as binding. Conditions: Buffer T pH 8.1, 200 mM NaCl, 25°C.
Method: (§8) Isothermal titration calorimetry (ITC) experiments were performed using a VP-ITC titration microcalorimeter (Malvern Panalytical, Malvern, UK) ([68]). All proteins and oligonucleotides were dialyzed extensively against the indicated buffer and cleared by centrifugation at 14 000 rpm for 15 min at 4°C. The concentrations were determined thereafter. For experiments with the SSB-Ct peptides and SIPs, 40–50 μM peptides were titrated into 1–2 μM SIPs in Buffer BTP at pH 8.0 and 50 mM NaCl. For experiments with the full-length SSB and its deletion mutants and SIPs, SSB tetramer (8–10 μM) was titrated into SIP (1 μM) in Buffer BTP at pH 7.0 and 200 mM NaCl. The heats of dilution were obtained by blank titrations in which the titrant species is titrated into the buffer, and corrections for heats of dilution were applied.
RecO (1 µM) in buffer BTP (pH 7.0, 200 mM NaCl) at 15° C and (b) 25° C.
(f) (dT)70 (15 µM) is titrated into
In series [3] the test system is E. coli RecO. Briefly: ITC of SSB-Ct peptides binding to RecO. Set-up: species or system Escherichia coli. The settings on record: 25°C. The protocol: as §1
Series [4] relates to DNA Pol III (χ). Briefly: ITC of SSB-Ct peptides binding to the χ subunit. Set-up: species or system Escherichia coli. The settings on record: pH 8.0, 50 mM NaCl, 25°C; N fixed to 1. The protocol: as §1
Another series relates to PriC. Briefly: ITC of SSB-Ct peptides binding to PriC. Set-up: species or system Escherichia coli. Conditions: 25°C. The procedure: as §1
The subject of series [5] is PriA. The settings on record: pH 8.0, 50 mM NaCl, 25°C; N fixed to 1.
Method: as §8
The raw data were analyzed to obtain titration curves by integrating each peak from the time of titrant addition until equilibration back to the baseline using ‘MicroCal Data Analysis’ software provided by the manufacturer. […] The concentration of the free ligand (X) was obtained by solving Equation (2).(2)
In Equations (1) and (2), and are the total concentrations of the ligand and macromolecule, respectively, in the calorimetric cell after ith injection and X is the free ligand concentration. Nonlinear least-squares fitting of the data was performed using the same software. […]
The subject of series [6] is PriA. The settings on record: previous study; cited from earlier work. The protocol: All binding reactions were performed under identical solution conditions, although additional experiments were performed at a lower [NaCl] for PriC as indicated, ...
The subject of series [7] is DNA Pol III (χ). Conditions: previous study; cited from earlier work. The source says:
When DNA is bound to the DBD, the acidic tip no longer interacts with the DBD and thus is more available to interact with a SIP. This is supported by the observation that ΔH = −6.0 ± 0.1 kcal/mol for RecO binding to the SSBΔ120-166–(dT)70 complex, which should not contain contributions from the acidic tip-DBD intramolecular interactions.

For series [8], the target named is P65 (SSB C-terminal peptide) (Escherichia coli, UniProt P0AGE0 114-178). Briefly: ITC; no detectable interaction; ITC; buffer BTP (20 mM Bis-Tris propane, 25% v/v glycerol, 1 mM TCEP), pH 7.0, 200 mM NaCl, 25 C for SSB experiments; buffer/pH of individual (dT)70 titrations. The settings on record: single-stranded.
In the next series the target is SSB (wtSSB) (Escherichia coli, UniProt P0AGE0 2-178). Description: ITC; 1:1 complex at 200 mM NaCl, (SSB)65 mode; (dT)70 (15 uM) titrated with SSB; ITC; buffer BTP (20 mM Bis-Tris propane, 25% v/v glycerol, 1 mM TCEP), pH 7.0, 200 mM NaCl, 25 C for SSB experiments; buffer/pH of individual (dT)70 titrations. The settings on record: protein: recombinant; chain copies: 4; single-stranded.

The target in a further series is SSB-A (Escherichia coli, UniProt P0AGE0 2-178+=TGASGT, internal_change). Description: ITC; (dT)70 titrated with SSB-A; stoichiometric binding, 1:1; dH similar to wtSSB (-131 kcal/mol in earlier work); ITC; buffer BTP (20 mM Bis-Tris propane, 25% v/v glycerol, 1 mM TCEP), pH 7.0, 200 mM NaCl, 25 C for SSB experiments; buffer/pH of individual (dT)70 titrations. The settings on record: protein: recombinant; chain copies: 4; single-stranded.

Series [9] has as its system (dT)70. Briefly: ITC control of P65 peptide and (dT)70. It counts as binding. The settings on record: BTP pH 7.0, 20 mM NaCl, 25°C. The protocol: as §2, §3, §4, §5, §6, §7

“Also recorded” adds a separate entry of the source.

As to “SSB-A: additional six amino acids, TGASGT, extending the C-terminus of wtSSB”, in the series on E. coli RecO [1], the “binding to RecO by ITC” value is given as “not interact with RecO; also recorded: eliminates binding to RecO”. For the same molecule, the “binding to χ by ITC” value in the series with χ is “does not show binding”. In addition, the “binding to (dT)70 by ITC” value in the series on (dT)70 [2] was “binds stoichiometrically”.
Consider “P15: SSB-Ct peptide, C-terminal 15 amino acids of E. coli SSB, contains acidic tip, no PXXP motifs (PSNEPPMDFDDDIPF)”, for which, in the series with E. coli RecO [3] (BTP pH 7, 200 mM NaCl), the “K” value was “(1.1 ± 0.1) × 10^6 M^−1”. Moreover, the “K (equilibrium binding constant)” value in the series with E. coli RecO [3] (pH 8.0, 50 mM NaCl, N fixed to 1) is given as “(1.2 ± 0.3) × 10^7 M^−1”; in the series with DNA Pol III (χ) [4], “(3.0 ± 0.1) × 10^5 M^−1”; with PriC (pH 8.0, 10 mM NaCl, N fixed to 1) it was “(1.6 ± 0.1) × 10^6 M^−1”; with PriA [5] it was “(2.6 ± 0.1) × 10^5 M^−1”. Besides, the “binding detected by ITC” value in the series with PriC (pH 8.0, 50 mM NaCl) is “undetectable; also recorded: showed no binding”. Further, the “binding to PriA” value in the series on PriA [6] is “same affinity as P9”. Moreover, the “binding to χ” value in the series on DNA Pol III (χ) [7] is “same affinity as P9”.

B1: (dT)70 (ssDNA)
DNA: TTTTTTTTTTTTTTTTTTTTTTTTTTTTTTTTTTTTTTTTTTTTTTTTTTTTTTTTTTTTTTTTTTTTTT
As to B1, the binding result in series [8] was “no binding”; with SSB (wtSSB), “binds”; in the series with SSB-A, “binds”.

B2: P65: SSB-Ct peptide, C-terminal 65 amino acids of SSB; acidic tip and the full IDL (peptide)
peptide: GGRQGGGAPAGGNIGGGQPQGGWGQPQQPQGGNQFSGGAQSRPQQSAPAAPSNEPPMDFDDDIPF
As to B2, the “binding to (dT)70 by ITC” value in the series on (dT)70 [9] was “does not interact; also recorded: no detectable interaction”.

These data come from PMC7145534, “Are the intrinsically disordered linkers involved in SSB binding to accessory proteins?” (Nucleic Acids Research, 2019).
